# According to article PMC5478727, “A Novel Small Molecule GDNF Receptor RET Agonist, BT13, Promotes Neurite Growth from Sensory Neurons in Vitro and Attenuates Experimental Neuropathy in the Rat” (Frontiers in Pharmacology, 2017):
# Legend:
# [1] = tested on: adrenergic receptor alpha 2; assay: CEREP Alpha 2 (non-selective; antagonist radioligand); type: binding; conditions: BT13 1 μM; Cat. No. 0011; average of duplicate
# [2] = tested on: Akt and Erk phosphorylation in parental MG87 cells; assay: Erk1/2 and Akt phosphorylation assay in parental MG87 cells; type: cell-based, murine; conditions: BT13 10–100 μM
# [3] = molecular target: T1, Protein Tyrosine Phosphatase, PTPRC (CD45) (Homo sapiens, UniProt P08575); assay: CEREP Protein Tyrosine Phosphatase, PTPRC (CD45); type: biochemical; conditions: BT13 1 μM; Cat. No. 3956; average of duplicate; read-out: Percentage of inhibition/potentiation from control
# T1 construct: purchased CEREP (contract screening, standard company protocols) 3956
# [4] = Solubility in the binding buffer; type: physicochemical; conditions: concentrations above 50 μM could not be tested
# [5] = tested on: dorsal root ganglia neurons of SNL rats; assay: Immunohistochemistry of DRG neuronal markers in rats with spinal nerve ligation; type: in vivo, rat
# Source text: DRGs from rats with spinal nerve ligation treated with BT13 or vehicle were embedded in paraffin and sectioned (7 μm thickness). Sections were deparaffinized, subjected to citrate or basic antigen-retrieval procedure and probed with IB4-Alexa 488 [1:200; IB4-Alexa488, Cat# IB4 (isolectin Griffonia simplicifolia IB4) RRID:AB_2314664] and antibodies against calcitonin gene-related peptide (CGRP; 1:10,000, Peninsula Laboratory, Cat# T-4032 RRID:AB_2313775), NPY (1:10,000, Peninsula Laboratory, Cat# T-4070.0050 RRID:AB_518504), pErk1/2 (1:300, Cell Signaling, Cat# 4370L RRID:AB_2297462), pS6 (1:300, Cell Signaling, Cat# 4858L RRID:AB_1031194) or RET [1:100, kind gift of Dr. E. Kramer, Center for Molecular Neurobiology, University Medical Center Hamburg-Eppendorf, Hamburg, Germany (Meka et al., [2015])] and corresponding secondary antibodies conjugated with fluorophores (Donkey Anti-Rabbit Alexa Fluor 647 conjugate, Cat# A31573 RRID:AB_162544; Donkey anti-Mouse Alexa Fluor 647 conjugate, Cat# A-31571 RRID:AB_2536181; Goat anti-Guinea Pig, Alexa Fluor 568 conjugate, Cat# A-11075 RRID:AB_2534119, Thermo Fisher Scientific, USA) or horse radish peroxidase (VECTASTAIN Elite ABC-Peroxidase Kit antibody, Vector Laboratories, CA, USA, Cat# PK-6101 RRID:AB_2336820). In the latter case, to reveal staining slides were treated with ABC and DAB staining kits (Vector Laboratories, CA, USA) according to the manufacturer's instructions. Sections were co-stained with guinea pig anti-PGP9.5 antibodies (Abcam Cat# ab10410 RRID:AB_297150) whenever possible. Nuclei were visualized using hematoxylin or DAPI dyes. Sections were mounted in Immu-Mount (Thermo Scientific, Cat#9990402) or Coverquick 2000 (Q PATH, Cat#05547530) mounting media and images were taken with fluorescent (Zeiss Imager M2 Axio, Carl Zeiss, Germany) or bright-field (Olympus BX-61, Olympus, Japan) microscopes. Neurons were counted for two sections per DRG and the number of cell profiles with nuclei positive for each specific marker was normalized to the total number of the neurons (identified by PGP9.5 staining or by morphology) per section. Ret-positive neurons were clustered by size using Matlab software R2014b (Mathworks, USA). Statistical analysis was performed using data from three to six individual animals. To obtain sufficient sample size, the data from animals treated with 20 and 25 mg/kg of BT13 were combined.
# [6] = molecular target: T2, serotonin receptor 5-HT2A (Homo sapiens, UniProt P28223); assay: CEREP 5-HT2A (h) (agonist radioligand); type: binding; conditions: BT13 1 μM; Cat. No. 0471; average of duplicate; read-out: Percentage of inhibition/potentiation from control
# T2 construct: purchased CEREP (contract assay) 0471
# 5-HT transporter = 5-HT transporter (Homo sapiens, UniProt P31645); assay: biochemical; conditions: read-out: Percentage of inhibition/potentiation from control
# [7] = molecular target: T3, serotonin receptor 5-HT1A (Homo sapiens, UniProt P08908); assay: CEREP 5-HT1A (h) (agonist radioligand); type: binding; conditions: BT13 1 μM; Cat. No. 0131; average of duplicate; read-out: Percentage of inhibition/potentiation from control
# T3 construct: purchased CEREP (contract assay) 0131
# neurotensin receptor NT = assay: CEREP NT (non-selective; agonist radioligand); type: binding; conditions: BT13 1 μM; Cat. No. 0465; average of duplicate
# [8] = molecular target: T4, serotonin receptor 5-HT2C (Homo sapiens, UniProt P28335); assay: CEREP 5-HT2C (h) (agonist radioligand); type: binding; conditions: BT13 1 μM, Cat. No. 1003, average of duplicate, read-out: Percentage of inhibition/potentiation from control
# T4 construct: purchased CEREP (contract assay) 0137, 1003
# T4 sequence (P28335 33-458): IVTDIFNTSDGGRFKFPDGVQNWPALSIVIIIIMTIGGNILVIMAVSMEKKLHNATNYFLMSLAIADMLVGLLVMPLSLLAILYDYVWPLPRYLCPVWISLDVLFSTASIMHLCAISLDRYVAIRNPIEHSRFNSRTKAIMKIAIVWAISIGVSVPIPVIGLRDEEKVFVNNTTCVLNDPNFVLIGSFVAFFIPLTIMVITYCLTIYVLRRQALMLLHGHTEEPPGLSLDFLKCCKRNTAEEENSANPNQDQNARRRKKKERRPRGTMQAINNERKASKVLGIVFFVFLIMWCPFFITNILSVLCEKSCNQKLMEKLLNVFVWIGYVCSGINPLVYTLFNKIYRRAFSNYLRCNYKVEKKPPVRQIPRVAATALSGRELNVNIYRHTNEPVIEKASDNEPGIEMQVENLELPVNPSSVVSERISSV
# histamine receptor H2 = histamine receptor H2 (Homo sapiens, UniProt P25021); assay: CEREP H2 (h) (antagonist radioligand); type: binding; conditions: BT13 1 μM; Cat. No. 1208; average of duplicate; read-out: Percentage of inhibition/potentiation from control
# dopamine receptor D2L = dopamine receptor D2L (Homo sapiens, UniProt P14416); assay: CEREP D2L (h) (antagonist radioligand); type: binding; conditions: BT13 1 μM; Cat. No. 1405; average of duplicate; read-out: Percentage of inhibition/potentiation from control
# [9] = SNL rats, BT13 vs vehicle, day 12
# [10] = SNL rats, vs vehicle-treated animals
# T3 sequence (P08908 whole entry): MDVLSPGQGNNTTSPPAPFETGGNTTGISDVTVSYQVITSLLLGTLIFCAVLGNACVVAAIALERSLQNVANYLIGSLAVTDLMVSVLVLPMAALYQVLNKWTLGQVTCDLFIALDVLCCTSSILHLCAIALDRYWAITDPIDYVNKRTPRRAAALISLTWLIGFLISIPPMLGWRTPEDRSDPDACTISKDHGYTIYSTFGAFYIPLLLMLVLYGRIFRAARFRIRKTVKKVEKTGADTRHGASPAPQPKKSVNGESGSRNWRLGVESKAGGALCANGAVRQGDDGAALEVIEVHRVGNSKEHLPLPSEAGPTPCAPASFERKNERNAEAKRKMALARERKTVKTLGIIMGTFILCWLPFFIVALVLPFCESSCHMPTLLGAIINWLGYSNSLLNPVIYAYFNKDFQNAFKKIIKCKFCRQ
# histamine receptor H2, sequence (P25021 whole entry): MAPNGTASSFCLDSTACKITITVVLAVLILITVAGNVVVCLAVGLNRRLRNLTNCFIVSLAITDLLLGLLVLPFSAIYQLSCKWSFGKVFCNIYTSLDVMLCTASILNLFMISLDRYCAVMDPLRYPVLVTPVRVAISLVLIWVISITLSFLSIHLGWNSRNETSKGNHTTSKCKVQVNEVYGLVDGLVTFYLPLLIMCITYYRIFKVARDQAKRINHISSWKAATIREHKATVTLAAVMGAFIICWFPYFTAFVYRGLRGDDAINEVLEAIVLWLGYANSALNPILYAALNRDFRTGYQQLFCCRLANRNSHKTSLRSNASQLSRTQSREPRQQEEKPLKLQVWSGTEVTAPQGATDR
# dopamine receptor D2L, sequence (P14416 whole entry): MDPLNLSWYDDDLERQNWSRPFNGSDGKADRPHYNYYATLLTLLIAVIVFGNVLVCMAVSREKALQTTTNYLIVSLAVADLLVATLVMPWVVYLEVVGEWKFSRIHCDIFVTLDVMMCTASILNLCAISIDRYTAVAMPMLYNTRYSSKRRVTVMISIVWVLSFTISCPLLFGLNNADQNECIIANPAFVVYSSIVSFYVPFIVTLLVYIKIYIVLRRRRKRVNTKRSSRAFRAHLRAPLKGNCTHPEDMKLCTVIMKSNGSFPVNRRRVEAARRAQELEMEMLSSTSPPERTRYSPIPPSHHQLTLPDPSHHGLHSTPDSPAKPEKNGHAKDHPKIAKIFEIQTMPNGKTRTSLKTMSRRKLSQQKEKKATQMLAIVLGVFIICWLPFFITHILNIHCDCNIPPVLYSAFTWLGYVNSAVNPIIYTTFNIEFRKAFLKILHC
# 5-HT transporter, sequence (P31645 whole entry): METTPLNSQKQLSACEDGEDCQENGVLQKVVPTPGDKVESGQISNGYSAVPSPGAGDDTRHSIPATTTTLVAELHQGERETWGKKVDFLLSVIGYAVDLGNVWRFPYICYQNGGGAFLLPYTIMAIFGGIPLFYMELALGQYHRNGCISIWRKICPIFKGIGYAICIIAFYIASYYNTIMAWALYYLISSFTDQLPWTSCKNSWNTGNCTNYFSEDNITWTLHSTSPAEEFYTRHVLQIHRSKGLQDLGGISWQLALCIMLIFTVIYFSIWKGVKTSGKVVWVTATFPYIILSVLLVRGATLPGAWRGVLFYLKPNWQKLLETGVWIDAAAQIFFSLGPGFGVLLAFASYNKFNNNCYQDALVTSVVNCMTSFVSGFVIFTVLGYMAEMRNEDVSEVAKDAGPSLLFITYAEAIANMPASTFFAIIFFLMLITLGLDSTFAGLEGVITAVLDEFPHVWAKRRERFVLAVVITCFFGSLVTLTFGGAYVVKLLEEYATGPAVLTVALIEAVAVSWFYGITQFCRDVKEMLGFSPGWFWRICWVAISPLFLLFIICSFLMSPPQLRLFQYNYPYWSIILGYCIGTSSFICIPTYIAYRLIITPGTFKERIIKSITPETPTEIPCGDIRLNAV
# T2 sequence (P28223 whole entry): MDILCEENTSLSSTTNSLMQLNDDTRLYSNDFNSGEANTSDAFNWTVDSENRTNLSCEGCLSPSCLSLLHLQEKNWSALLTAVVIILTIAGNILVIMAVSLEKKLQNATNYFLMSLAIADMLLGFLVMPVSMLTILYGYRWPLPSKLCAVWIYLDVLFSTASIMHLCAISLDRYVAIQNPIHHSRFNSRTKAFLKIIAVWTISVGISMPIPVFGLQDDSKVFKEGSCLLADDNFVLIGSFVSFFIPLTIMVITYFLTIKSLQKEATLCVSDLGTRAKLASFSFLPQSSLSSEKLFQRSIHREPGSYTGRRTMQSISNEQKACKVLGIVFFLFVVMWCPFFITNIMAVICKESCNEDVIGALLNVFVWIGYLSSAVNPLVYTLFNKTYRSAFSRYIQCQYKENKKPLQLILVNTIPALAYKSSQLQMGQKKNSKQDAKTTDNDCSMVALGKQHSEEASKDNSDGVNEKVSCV
# T1 sequence (P08575 26-1306): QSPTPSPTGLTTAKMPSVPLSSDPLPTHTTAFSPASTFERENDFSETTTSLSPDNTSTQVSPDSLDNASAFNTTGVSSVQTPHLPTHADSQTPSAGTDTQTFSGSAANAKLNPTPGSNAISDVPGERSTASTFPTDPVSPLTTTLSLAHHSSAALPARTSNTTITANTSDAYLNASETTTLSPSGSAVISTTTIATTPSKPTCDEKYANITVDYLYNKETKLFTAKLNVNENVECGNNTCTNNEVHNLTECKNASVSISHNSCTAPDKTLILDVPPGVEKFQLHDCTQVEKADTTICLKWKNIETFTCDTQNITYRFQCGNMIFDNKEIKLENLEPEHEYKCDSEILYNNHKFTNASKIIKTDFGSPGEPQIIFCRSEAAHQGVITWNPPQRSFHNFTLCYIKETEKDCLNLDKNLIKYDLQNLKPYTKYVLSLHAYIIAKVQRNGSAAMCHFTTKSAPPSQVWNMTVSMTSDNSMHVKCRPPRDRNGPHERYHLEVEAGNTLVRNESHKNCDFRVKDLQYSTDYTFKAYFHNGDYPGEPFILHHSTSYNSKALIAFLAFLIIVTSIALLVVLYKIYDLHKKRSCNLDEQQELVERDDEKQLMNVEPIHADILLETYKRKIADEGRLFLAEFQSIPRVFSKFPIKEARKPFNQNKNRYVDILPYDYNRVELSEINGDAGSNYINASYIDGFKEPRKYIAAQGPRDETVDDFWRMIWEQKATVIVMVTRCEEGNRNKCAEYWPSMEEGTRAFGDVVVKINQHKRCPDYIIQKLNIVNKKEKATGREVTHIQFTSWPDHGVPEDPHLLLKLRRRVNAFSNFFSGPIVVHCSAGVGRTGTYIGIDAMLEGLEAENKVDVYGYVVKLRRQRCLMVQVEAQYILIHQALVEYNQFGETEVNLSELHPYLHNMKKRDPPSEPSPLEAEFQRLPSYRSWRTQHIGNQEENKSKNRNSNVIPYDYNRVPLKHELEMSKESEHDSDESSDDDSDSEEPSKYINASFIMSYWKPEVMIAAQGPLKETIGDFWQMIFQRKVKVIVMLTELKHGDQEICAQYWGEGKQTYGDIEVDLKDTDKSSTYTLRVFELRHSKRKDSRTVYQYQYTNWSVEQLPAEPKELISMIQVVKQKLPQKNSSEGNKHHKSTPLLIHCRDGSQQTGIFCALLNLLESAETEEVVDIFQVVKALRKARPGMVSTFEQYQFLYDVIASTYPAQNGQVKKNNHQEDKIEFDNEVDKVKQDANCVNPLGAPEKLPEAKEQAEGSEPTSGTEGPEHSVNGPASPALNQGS
structure (smiles),measurement,setting,value
CCN(CC)S(=O)(=O)c1ccc(OC)c(N2CCN(C(=O)c3ccc(F)cc3C(F)(F)F)CC2)c1 [BT13],Percentage of inhibition/potentiation from control,[1],−6%
same,Akt and Erk phosphorylation,[2],no Akt or Erk phosphorylation was observed
same,inhibition at 1 µM,[3],-3%
same,solubility in the binding buffer,[4],poor solubility
same,reduction in the number of RET-positive cells in DRGs after SNL,"[5]; IHC, day 12 after SNL",restored
same,number of large RET-positive neurons in lesioned DRGs,"[5]; IHC, size above 1,000 μm^2, vs contralateral",increased
same,number of small RET-positive neurons in lesioned DRGs,"[5]; IHC, size below 1,000 μm^2, vs contralateral",decreased
same,IB4 positive cells per section in ipsilateral DRGs,"[5]; SNL rats, BT13 20 and 25 mg/kg combined, day 12",3%
same,number of NPY-positive neurons in contralateral DRGs,"[5]; SNL rats, BT13-treated, vehicle 0.0 ± 0.0",0.0 ± 0.0
same,number of CGRP-positive neurons in contralateral DRGs,"[5]; SNL rats, BT13-treated, vehicle 34.30 ± 1.344",25.09 ± 2.687
same,number of IB4-positive neurons in contralateral DRGs,"[5]; SNL rats, BT13-treated, vehicle 44.95 ± 4.295",44.82 ± 1.960
same,increase in number of CGRP-positive neurons in ipsilateral DRGs,[5]; [9],~ 2 times
same,reduction in number of NPY-positive cells in ipsilateral DRGs,[5]; [9],~ 25%
same,number of neurons positive for pErk in DRGs,[5]; [10],increased
same,number of neurons positive for pS6 in DRGs,[5]; [10],increased
same,inhibition at 1 µM,[6],-11%
same,inhibition at 1 µM,5-HT transporter,0%
same,inhibition at 1 µM,[7],-8%
same,Percentage of inhibition/potentiation from control,neurotensin receptor NT,−6%
same,inhibition at 1 µM,[8],6%
same,inhibition at 1 µM,histamine receptor H2,9%
same,inhibition at 1 µM,dopamine receptor D2L,-3%
